Reference: ChEMBL document CHEMBL1201862, “PubChem BioAssay data set” (2004)
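Method: 48-hour compound exposure of cells in 96-well plates, five concentrations, linear interpolation of endpoints. GI50 marks 50% less growth.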 Active and inactive are the calls of the source. No stated cut-off is given here; in the data, active = GI50 up to about 1.1 µM and inactive = higher.

What was measured:
Assay in all cases: DTP human tumour cell line panel, 48 h
[1] = test system: SK-MEL-28
[2] = test system: CAKI-1
[3] = test system: Hs-578T
[4] = test system: 786-0
[5] = test system: SW-620
[6] = test system: IGROV-1
[7] = test system: NCI-H23
[8] = test system: SK-MEL-5
[9] = test system: SF-295
[10] = test system: NCI-H460
[11] = test system: SNB-75
[12] = test system: HL-60
[13] = test system: OVCAR-8
[14] = test system: COLO 205
[15] = test system: TK-10
[16] = test system: HOP-92
[17] = test system: OVCAR-4
[18] = test system: UACC-62
[19] = test system: BT-549
[20] = test system: MCF7

| Compound | GI50 [1] | GI50 [2] | GI50 [3] | GI50 [4] | GI50 [5] | GI50 [6] | GI50 [7] | GI50 [8] | GI50 [9] | GI50 [10] | GI50 [11] | GI50 [12] | GI50 [13] | GI50 [14] | GI50 [15] | GI50 [16] | GI50 [17] | GI50 [18] | GI50 [19] | GI50 [20] |
| --- | --- | --- | --- | --- | --- | --- | --- | --- | --- | --- | --- | --- | --- | --- | --- | --- | --- | --- | --- | --- |
| COc1ccc(CC2C(=O)NC(C)C(=O)N(C)C3C(=O)N(C)C(Cc4ccc(O)c(c4)Oc4ccc(cc4)C3O)C(=O)NC(C)C(=O)NC(C)C(=O)N2C)cc1.COc1ccc(CC2C(=O)NC(C)C(=O)N(C)C3Cc4ccc(cc4)Oc4cc(ccc4O)CC(C(=O)NC(C)C(=O)NC(C)C(=O)N2C)N(C)C3=O)cc1 (stereo not given) | 0.00344 µM (active) | 0.137 µM (active) | 0.01 µM (active) | 0.00771 µM (active) | 0.00718 µM (active) | 0.01 µM (active) | 0.00552 µM (active) | 0.0168 µM (active) | 0.0274 µM (active) | 0.0413 µM (active) | 0.01 µM (active) | 0.01 µM (active) | 0.0128 µM (active) | 0.03 µM (active) | 0.0408 µM (active) | 0.00364 µM (active) | 0.0127 µM (active) | 0.00266 µM (active) | 0.00321 µM (active) | 0.00215 µM (active) |
| COc1ccc(Oc2ccc3cc4c(cc3c2O)OCO4)c2cc(C)oc12 | 47.5 µM (inactive) | 30.1 µM (inactive) | 37.7 µM (inactive) | 35.8 µM (inactive) | 27.2 µM (inactive) | 37.8 µM (inactive) | 26.4 µM (inactive) | 16.4 µM (inactive) | 33.5 µM (inactive) | 21.5 µM (inactive) | 33.4 µM (inactive) | 25.1 µM (inactive) | 37.5 µM (inactive) | 25.5 µM (inactive) | 25.4 µM (inactive) | 25.2 µM (inactive) | 22.4 µM (inactive) | 35.6 µM (inactive) | 22.5 µM (inactive) | 34 µM (inactive) |
